From PMC4743981, “Immunomodulatory and Anti-Inflammatory Activities of Chicken Cathelicidin-2 Derived Peptides” (PLoS ONE, 2016)
Read-outs that look alike come from different tables or passages of the source. Ends that are not written are not given here.

Legend:
S. minnesota LPS = assay: LPS binding affinity, dansyl-polymyxin B displacement; parameters: species or system Salmonella minnesota; settings: concentration of peptide needed to displace 50% of Dansyl-labeled polymyxin from S. minnesota LPS micelles, unsubstituted (Phe) peptide, read-out: I50 (Phe)
Procedure: Dansyl-polymyxin B was prepared and quantitated as described by Schindler and Teuber. Subsequently, the capacity of peptides to displace dansyl-labeled polymyxin B complexed to S. minnesota LPS was determined according to Moore et al..

CXCLi2/IL-8 = assay: Peptide-induced CXCLi2 transcription in HD11 cells (real time PCR); type: cell-based, chicken; settings: 1 to 20 μM peptide, 4 h or 24 h, real time QPCR
Procedure: (§1) HD11 cells were a kind gift of dr. Jos van Putten (department of Infectious diseases and Immunology, Utrecht University, The Netherlands). HD11 cells were seeded in 96 wells tissue culture treated plates (1×10^5 cell/mL) and incubated for 18 h at 37°C (5% CO2) before treatment. For peptide-induced effects cells were treated with RPMI-1640 medium containing 20 μM peptide during 4 h or 24 h. In LPS neutralization experiments, final concentrations of 50–100 ng/ml LPS were pre-incubated with or without 20 μM peptide for 30 min at 37°C (5% CO2), applied to the cells and incubated for 4 h. To examine neutralization of LPS-primed cells HD11 cells were exposed for 30 min to 100–1000 ng/ml S. minnesota LPS, washed once and incubated during 4 h in the absence or presence of 20 μM Peptide. Supernatants were collected for the determination of nitric oxide production (24 h incubations only). […] RNA quantity and purity were tested using a Nanodrop ND-1000 spectrophometer (Nanodrop Technologies, Wilmington, DE). Cytotoxicity of peptides was determined using the cell viability reagent WST-1 (Roche) as described previously, and by measuring LDH release after 24 h exposure. LDH activities in supernatant cell fractions were measured using the Cytoxicity Detection Kit PLUS (Roche) according the manufacturers recommendations and expressed as the % of released LDH relative to the total LDH activity. […]

MCP-3 = assay: Peptide-induced MCP-3 transcription in HD11 cells (real time PCR); type: cell-based, chicken; settings: 1 to 20 μM peptide, 4 h or 24 h, real time QPCR
Procedure: as §1

[1] = tested on: NO production by HD11 cells; assay: Peptide-induced nitric oxide production by HD11 cells (Griess); type: cell-based, chicken; settings: 24 h exposure to 20 μM peptide without LPS, data not shown
Procedure: HD11 cells were a kind gift of dr. Jos van Putten (department of Infectious diseases and Immunology, Utrecht University, The Netherlands). HD11 cells were seeded in 96 wells tissue culture treated plates (1×10^5 cell/mL) and incubated for 18 h at 37°C (5% CO2) before treatment. For peptide-induced effects cells were treated with RPMI-1640 medium containing 20 μM peptide during 4 h or 24 h. In LPS neutralization experiments, final concentrations of 50–100 ng/ml LPS were pre-incubated with or without 20 μM peptide for 30 min at 37°C (5% CO2), applied to the cells and incubated for 4 h. […] RNA quantity and purity were tested using a Nanodrop ND-1000 spectrophometer (Nanodrop Technologies, Wilmington, DE). Cytotoxicity of peptides was determined using the cell viability reagent WST-1 (Roche) as described previously, and by measuring LDH release after 24 h exposure. LDH activities in supernatant cell fractions were measured using the Cytoxicity Detection Kit PLUS (Roche) according the manufacturers recommendations and expressed as the % of released LDH relative to the total LDH activity.
Nitric oxide production was assessed as the accumulation of nitrite (NO2^−) in cell supernatants during a 24 h incubation period. Nitrite concentrations were determined using a colorimetric reaction with the Griess reagent using (from 1 to 50 μM) sodium nitrite dissolved in water as standards. […]

[2] = tested on: IL-1β transcription in LPS-primed HD11 cells; assay: Neutralization of IL-1β transcription in LPS-primed HD11 cells; type: cell-based, chicken; settings: HD11 cells primed 30 min with S. minnesota LPS (100–1000 ng/ml), washed once, 4 h with 20 μM peptide; real time QPCR
Procedure: as §1

[3] = tested on: Avian pathogenic Escherichia coli O78; type: cell-based; settings: Avian pathogenic O78, 3 h
Procedure: Avian pathogenic Escherichia coli O78 (field isolate, Zoetis, Kalamazoo, MI) was cultured in Mueller-Hinton broth at 37°C. Overnight grown cultures were diluted to a density of 2×10^6 CFU/ml in Mueller-Hinton broth (non cation-adjusted, Oxoid Ltd., Hampshire, UK) and mixed in a 96 wells polypropylene microwell plate at a 1:1 ratio with peptide (final concentration: 1.25 to 40 μM). After 3 h incubation samples were serially diluted in medium, plated on trypton soy agar (Oxoid Ltd., Hampshire, UK) media and counted after 24 h incubation at 37°C.

Compound	MIC [3] [µM]	other results
CC[C@H](C)[C@H](NC(=O)[C@H](CCCCN)NC(=O)[C@H](CCC(=O)O)NC(=O)[C@H](CCCCN)NC(=O)[C@H](CO)NC(=O)[C@H](CCCCN)NC(=O)[C@H](CCCNC(=N)N)NC(=O)[C@H](Cc1ccccc1)NC(=O)[C@H](Cc1ccccc1)NC(=O)[C@H](CC(=O)O)NC(=O)CNC(=O)[C@H](CC(C)C)NC(=O)[C@@H](N)CC(C)C)C(=O)NCC(=O)N[C@@H](CCCCN)C(=O)N[C@@H](CCC(=O)O)C(=O)N[C@@H](Cc1ccccc1)C(=O)N[C@@H](CCCCN)C(=O)N[C@@H](CCCNC(=N)N)C(=O)N[C@H](C(=O)N[C@H](C(=O)N[C@@H](CCC(N)=O)C(=O)N[C@@H](CCCNC(=N)N)C(=O)N[C@H](C(=O)N[C@@H](CCCCN)C(=O)N[C@@H](CC(=O)O)C(=O)N[C@@H](Cc1ccccc1)C(=O)N[C@@H](CC(C)C)C(=O)N[C@@H](CCCNC(=N)N)C(=O)N[C@@H](CC(N)=O)C(=O)N[C@@H](CC(C)C)C(=O)N[C@H](C(=O)N1CCC[C@H]1C(=O)N[C@@H](CCCNC(=N)N)C(=O)N[C@H](C(=O)N[C@@H](CCC(=O)O)C(=O)N[C@@H](CO)C(=O)O)[C@@H](C)O)C(C)C)[C@@H](C)CC)C(C)C)[C@@H](C)CC [LL37]		IC50 (S. minnesota LPS): 0.28 ± 0.04 µM; induction of CXCLi2 transcription (in words) (CXCLi2/IL-8): inducing the transcription; induction of MCP-3 transcription (in words) (MCP-3): inducing the transcription; increase of NO levels [1]: 2 fold; inhibition of IL-1β transcription induced by LPS priming (in words) [2]: strongly inhibited
FLRKIRRFRPKVTITIQ-NH2 [C(5–21)]	8.3 ± 5.8	
IRRFRPKVTITIQ-NH2 [C(9–21)]	8.3 ± 2.9	
KIRRFRPKVTITIQ-NH2 [C(8–21)]	11.7 ± 7.6	
Polymyxin B		IC50 (S. minnesota LPS; listed as polymyxin B): 4.19 µM; IC50 (S. minnesota LPS): 3.46 ± 0.17 µM
RFGRFLRKIRRFRPK [C(1–15)]	16.7 ± 5.8	
RFGRFLRKIRRFRPKVTITIQ-NH2 [C(1–21)]	13.3 ± 5.8	
RFGRFLRKIRRFRPKVTITIQGSARF-NH2 [CATH-2]	5.0 ± 0.0	
RFLRKIRRFRPKVTITIQ-NH2 [C(4–21)]	6.7 ± 2.9	
RFRPKVTITIQ-NH2 [C(11–21)]	8.3 ± 2.9	
RKIRRFRPKVTITIQ-NH2 [C(7–21)]	8.3 ± 2.9	
RKIRRWRPKVTITIQ-NH2 [C(7–21)W]	13.3 ± 5.8	
RKIRRYRPKVTITIQ-NH2 [C(7–21)Y]	11.7 ± 7.6	
RRFRPKVTITIQ-NH2 [C(10–21)]	6.7 ± 2.9	
RRWRPKVTITIQ-NH2 [C(10–21)W]	11.7 ± 7.6	
RRYRPKVTITIQ-NH2 [C(10–21)Y]	16.7 ± 5.8	
RWGRWLRKIRRWRPKVTITIQ-NH2 [C(1–21)W3]	13.3 ± 5.8	
RWLRKIRRWRPKVTITIQ-NH2 [C(4–21)W2]	8.3 ± 2.9	
RYGRYLRKIRRYRPKVTITIQ-NH2 [C(1–21)Y3]	10.0 ± 0.0	
RYLRKIRRYRPKVTITIQ-NH2 [C(4–21)Y2]	10.0 ± 0.0	
